The values that follow are results of earlier work, collected in US11883631B2 (priority 2015, dated 2024).

The structures appear in SMILES notation.

For data set [1] the following is noted: in vivo.
For data set [2] the following is noted: 10 mg/s vs 2 mg/s.
For data set [3] the following is noted: EEG monitor effect site; 18-60 yr.
The conditions of data set [4]: in vivo. This is another data set of the same source.

Consider `CC(C)c1cccc(C(C)C)c1O` [propofol], for which the “effect-site concentration at burst suppression onset” value in data set [1] is “higher than 8 μg/ml”. Moreover, the “drop in mean arterial pressure, higher vs lower infusion rate” value in data set [2] is given as “larger drop in mean arterial pressure”. The ke0 in data set [3] was 0.456 min⁻¹. For the same compound, the “Propofol concentration associated with awakening from anesthesia” value in data set [4] was below 1.8 µg/mL. Also, the “Reductions in systolic blood pressure (SBP)” value (during induction of anesthesia with propofol) is given as “greater than 25%”. Also, the “plasma concentration at which propofol may significantly decrease SBP” value (patients aged 20-85 yr, effect more evident in elderly (>70 yr)) was above 10000 ng/mL.
